# Values of other authors, collected in patent US6106863A, “Sustained-release metal valproate tablets” (priority 1996, dated 2000).
# Experiments:
# [1] = in vivo
smiles,measurement,setting,value
CCCC(CCC)C(=O)[O-].[Na+] [Sodium valproate],biological half-life (in words),[1],short biological half-life
same,effective blood concentration,[1],50 to 100 µg/mL
same,water solubility (in words),,water-soluble
